pEC50, pKi: −log10 of the molar value.
How the values were obtained:
[1] = target: T1, 5-hydroxytryptamine receptor 1A (Homo sapiens, UniProt P08908); assay: Activity against 5HT1A receptor by Gi-[35S]GTP-gamma-S binding assay; type: functional
T1 sequence (P08908 whole entry): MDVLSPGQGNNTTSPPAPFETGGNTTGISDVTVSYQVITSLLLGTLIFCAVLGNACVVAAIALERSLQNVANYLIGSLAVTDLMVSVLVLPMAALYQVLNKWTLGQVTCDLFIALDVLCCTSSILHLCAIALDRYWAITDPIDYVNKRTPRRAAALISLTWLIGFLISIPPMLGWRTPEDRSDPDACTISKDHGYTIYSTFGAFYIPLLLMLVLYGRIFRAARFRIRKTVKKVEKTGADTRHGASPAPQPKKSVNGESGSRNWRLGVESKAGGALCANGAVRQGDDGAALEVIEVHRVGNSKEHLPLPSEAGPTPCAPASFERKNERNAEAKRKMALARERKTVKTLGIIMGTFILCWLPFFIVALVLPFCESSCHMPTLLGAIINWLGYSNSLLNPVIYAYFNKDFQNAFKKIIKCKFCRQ

[2] = target: Alpha-2A adrenergic receptor (Rattus norvegicus, UniProt P22909); assay: Displacement of [3H]RX 821002 from Adrenergic alpha-2a receptor in rat cerebral cortex cells; type: cell-based
[3] = target: T2, Adrenergic receptor alpha-1 (Rattus norvegicus, UniProt P15823+P23944+P43140); assay: Displacement of [3H]prazosin from adrenergic alpha-1 receptor in rat cerebral cortex cells; type: cell-based
T2 sequence (P15823 whole entry): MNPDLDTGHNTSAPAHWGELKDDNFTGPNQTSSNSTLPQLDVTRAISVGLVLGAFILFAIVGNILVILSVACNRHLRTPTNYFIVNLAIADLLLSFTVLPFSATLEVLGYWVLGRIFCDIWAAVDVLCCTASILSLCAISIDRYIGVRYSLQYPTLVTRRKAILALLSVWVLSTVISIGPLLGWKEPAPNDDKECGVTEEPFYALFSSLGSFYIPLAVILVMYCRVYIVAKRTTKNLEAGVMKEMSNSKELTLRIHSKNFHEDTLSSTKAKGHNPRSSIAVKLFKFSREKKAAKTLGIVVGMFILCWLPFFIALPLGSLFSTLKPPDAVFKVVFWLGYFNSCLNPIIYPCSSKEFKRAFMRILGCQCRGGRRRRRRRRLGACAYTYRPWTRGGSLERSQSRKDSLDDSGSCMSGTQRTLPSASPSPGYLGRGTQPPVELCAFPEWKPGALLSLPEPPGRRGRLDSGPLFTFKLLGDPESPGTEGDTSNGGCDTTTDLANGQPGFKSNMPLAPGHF
T2 sequence (P23944 whole entry): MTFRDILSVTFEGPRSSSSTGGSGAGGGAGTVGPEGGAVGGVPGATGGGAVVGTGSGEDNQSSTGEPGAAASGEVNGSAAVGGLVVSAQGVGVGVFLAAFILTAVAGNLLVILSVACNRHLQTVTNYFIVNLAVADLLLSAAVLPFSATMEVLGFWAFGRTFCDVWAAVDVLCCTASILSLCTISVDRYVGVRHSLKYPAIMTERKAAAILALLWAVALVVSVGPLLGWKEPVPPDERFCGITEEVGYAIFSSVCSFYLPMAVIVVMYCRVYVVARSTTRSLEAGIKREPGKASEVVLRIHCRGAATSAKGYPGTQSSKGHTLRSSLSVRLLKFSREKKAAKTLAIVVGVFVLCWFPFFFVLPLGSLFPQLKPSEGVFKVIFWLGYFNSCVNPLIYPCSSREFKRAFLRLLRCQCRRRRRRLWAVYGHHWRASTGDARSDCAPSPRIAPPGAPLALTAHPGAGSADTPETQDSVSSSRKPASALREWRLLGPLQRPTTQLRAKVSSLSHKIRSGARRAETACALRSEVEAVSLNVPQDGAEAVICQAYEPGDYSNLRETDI
T2 sequence (P43140 whole entry): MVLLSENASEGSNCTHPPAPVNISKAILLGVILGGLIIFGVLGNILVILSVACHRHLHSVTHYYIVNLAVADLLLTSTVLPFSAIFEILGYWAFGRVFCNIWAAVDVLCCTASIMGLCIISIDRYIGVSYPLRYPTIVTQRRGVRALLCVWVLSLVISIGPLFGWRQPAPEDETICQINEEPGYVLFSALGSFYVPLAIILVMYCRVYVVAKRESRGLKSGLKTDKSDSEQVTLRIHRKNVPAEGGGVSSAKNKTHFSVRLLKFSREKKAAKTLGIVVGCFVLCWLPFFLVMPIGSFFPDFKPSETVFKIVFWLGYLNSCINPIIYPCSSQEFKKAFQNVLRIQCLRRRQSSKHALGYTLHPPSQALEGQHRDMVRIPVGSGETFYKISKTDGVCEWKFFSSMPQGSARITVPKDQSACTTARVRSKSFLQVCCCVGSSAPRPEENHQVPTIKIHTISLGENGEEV

[4] = target: 5-hydroxytryptamine receptor 2B (Homo sapiens, UniProt P41595); assay: Binding affinity to 5HT2B receptor by radioligand binding assay
[5] = Half life in Sprague-Dawley rat at 3 mg/kg, po; type: ADME, organism-based; design: dose 3 mg/kg, route oral; conditions: in vivo
[6] = target: Sodium-dependent serotonin transporter (Homo sapiens, UniProt P31645); assay: Binding affinity to 5HT transporter by radioligand binding assay
[7] = target: T1, 5-hydroxytryptamine receptor 1A; assay: Displacement of [3H]8-OH-DPAT from human 5HT1A receptor in HEK293 cells
[8] = target: 5-hydroxytryptamine receptor 7 (Homo sapiens, UniProt P34969)
Description: Binding affinity to 5HT7 receptor by radioligand binding assay

[9] = Oral bioavailability in Sprague-Dawley rat at 3 mg/kg, po and 1 mg/kg, iv; type: ADME, organism-based; conditions: in vivo
[10] = target: 5-hydroxytryptamine receptor 2A (Homo sapiens, UniProt P28223)
Description: Binding affinity to 5HT2A receptor by radioligand binding assay

[11] = target: T3, 5-hydroxytryptamine receptor 1A (Homo sapiens) (UniProt P08908); assay: Activity against 5HT1A receptor relative to 5-HT by Gi-[35S]GTP-gamma-S binding assay; type: functional
T3 sequence (whole entry): T1 sequence (P08908 whole entry)

Chain of 5-hydroxytryptamine receptor 2A (P28223 whole entry): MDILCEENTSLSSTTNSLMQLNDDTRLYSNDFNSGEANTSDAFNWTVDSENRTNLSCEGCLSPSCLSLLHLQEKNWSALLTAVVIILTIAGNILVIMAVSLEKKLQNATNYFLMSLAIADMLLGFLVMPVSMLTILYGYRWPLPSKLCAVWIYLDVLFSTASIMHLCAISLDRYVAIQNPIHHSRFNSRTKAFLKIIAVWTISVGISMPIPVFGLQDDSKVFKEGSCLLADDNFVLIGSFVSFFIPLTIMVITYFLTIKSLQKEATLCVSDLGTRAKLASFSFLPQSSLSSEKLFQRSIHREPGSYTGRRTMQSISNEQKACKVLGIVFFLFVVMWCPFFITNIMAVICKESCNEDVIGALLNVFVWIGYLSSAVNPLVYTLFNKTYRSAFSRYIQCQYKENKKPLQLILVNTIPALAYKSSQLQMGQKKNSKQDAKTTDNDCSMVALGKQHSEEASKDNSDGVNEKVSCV
Chain of 5-hydroxytryptamine receptor 7 (P34969 whole entry): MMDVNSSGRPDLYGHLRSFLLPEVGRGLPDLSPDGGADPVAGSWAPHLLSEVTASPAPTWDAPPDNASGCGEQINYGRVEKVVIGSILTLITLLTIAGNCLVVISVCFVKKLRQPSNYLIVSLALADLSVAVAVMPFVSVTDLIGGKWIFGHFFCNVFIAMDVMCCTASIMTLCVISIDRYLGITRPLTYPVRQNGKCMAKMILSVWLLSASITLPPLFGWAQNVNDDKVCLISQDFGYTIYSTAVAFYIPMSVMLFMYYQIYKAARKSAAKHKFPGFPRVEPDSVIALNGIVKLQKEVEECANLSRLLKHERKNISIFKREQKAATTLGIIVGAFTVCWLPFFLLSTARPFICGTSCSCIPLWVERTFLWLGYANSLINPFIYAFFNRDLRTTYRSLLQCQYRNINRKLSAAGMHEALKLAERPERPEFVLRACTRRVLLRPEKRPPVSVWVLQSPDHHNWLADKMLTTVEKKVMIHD
Chain of Alpha-2A adrenergic receptor (P22909 whole entry): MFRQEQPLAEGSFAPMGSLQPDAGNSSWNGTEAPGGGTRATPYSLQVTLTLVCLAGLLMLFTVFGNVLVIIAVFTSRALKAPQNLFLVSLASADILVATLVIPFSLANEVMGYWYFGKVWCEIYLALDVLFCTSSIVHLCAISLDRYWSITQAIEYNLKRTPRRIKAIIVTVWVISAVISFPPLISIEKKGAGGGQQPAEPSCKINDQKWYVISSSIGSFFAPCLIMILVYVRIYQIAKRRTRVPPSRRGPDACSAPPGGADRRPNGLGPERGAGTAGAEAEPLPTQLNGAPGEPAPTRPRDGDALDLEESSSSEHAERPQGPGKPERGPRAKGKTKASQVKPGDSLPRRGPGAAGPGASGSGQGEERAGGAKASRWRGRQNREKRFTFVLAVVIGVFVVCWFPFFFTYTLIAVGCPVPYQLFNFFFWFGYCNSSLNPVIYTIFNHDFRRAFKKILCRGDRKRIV
Chain of 5-hydroxytryptamine receptor 2B (P41595 whole entry): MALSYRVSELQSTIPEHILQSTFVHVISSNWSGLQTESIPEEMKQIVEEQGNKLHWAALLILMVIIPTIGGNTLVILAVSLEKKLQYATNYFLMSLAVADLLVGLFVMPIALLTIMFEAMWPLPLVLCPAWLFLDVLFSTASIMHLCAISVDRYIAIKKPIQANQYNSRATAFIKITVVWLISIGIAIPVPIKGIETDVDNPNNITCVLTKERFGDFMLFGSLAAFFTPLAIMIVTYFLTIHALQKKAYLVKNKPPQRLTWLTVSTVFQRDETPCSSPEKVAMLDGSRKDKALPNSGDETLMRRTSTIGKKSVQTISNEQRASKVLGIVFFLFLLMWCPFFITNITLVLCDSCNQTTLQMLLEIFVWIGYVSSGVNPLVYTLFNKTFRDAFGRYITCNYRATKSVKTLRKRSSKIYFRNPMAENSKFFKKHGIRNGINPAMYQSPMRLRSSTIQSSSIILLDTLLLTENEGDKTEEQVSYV
Chain of Sodium-dependent serotonin transporter (P31645 whole entry): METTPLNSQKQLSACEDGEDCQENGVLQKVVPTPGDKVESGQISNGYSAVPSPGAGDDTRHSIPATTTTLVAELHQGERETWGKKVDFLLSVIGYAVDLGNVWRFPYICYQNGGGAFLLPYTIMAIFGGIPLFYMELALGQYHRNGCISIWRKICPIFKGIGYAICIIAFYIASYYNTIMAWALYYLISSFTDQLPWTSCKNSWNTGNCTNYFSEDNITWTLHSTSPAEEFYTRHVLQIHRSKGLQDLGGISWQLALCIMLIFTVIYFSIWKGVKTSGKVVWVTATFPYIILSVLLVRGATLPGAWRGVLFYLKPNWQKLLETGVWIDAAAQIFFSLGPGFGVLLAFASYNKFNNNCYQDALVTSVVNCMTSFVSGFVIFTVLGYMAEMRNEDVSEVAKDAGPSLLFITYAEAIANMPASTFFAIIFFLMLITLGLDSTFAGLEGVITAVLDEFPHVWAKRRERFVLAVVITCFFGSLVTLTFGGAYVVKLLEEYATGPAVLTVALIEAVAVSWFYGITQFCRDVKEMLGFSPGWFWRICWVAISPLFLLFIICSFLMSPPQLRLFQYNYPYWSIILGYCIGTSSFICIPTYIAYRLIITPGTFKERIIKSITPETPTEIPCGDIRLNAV

pEC50 [1]: 7.68
pKi [2]: 7.92
Ki [3]: 0.006 µM
pKi [4]: 7.28
half-life [5]: 1 h
pKi [6]: 6.70
pKi [7]: 9.00
pKi [8]: 7.52
bioavailability [9]: 2%
pKi [10]: 6.31
Activity [11]: 65%
Compound: COc1ccccc1N1CCN(CCCCNS(=O)(=O)c2ccc(C)cc2)CC1
